In the first assay the target is T1, Human Recombinant Matriptase 2 (Homo sapiens, UniProt Q8IU80).
T1 construct: made in house
T1 sequence (Q8IU80 1-811): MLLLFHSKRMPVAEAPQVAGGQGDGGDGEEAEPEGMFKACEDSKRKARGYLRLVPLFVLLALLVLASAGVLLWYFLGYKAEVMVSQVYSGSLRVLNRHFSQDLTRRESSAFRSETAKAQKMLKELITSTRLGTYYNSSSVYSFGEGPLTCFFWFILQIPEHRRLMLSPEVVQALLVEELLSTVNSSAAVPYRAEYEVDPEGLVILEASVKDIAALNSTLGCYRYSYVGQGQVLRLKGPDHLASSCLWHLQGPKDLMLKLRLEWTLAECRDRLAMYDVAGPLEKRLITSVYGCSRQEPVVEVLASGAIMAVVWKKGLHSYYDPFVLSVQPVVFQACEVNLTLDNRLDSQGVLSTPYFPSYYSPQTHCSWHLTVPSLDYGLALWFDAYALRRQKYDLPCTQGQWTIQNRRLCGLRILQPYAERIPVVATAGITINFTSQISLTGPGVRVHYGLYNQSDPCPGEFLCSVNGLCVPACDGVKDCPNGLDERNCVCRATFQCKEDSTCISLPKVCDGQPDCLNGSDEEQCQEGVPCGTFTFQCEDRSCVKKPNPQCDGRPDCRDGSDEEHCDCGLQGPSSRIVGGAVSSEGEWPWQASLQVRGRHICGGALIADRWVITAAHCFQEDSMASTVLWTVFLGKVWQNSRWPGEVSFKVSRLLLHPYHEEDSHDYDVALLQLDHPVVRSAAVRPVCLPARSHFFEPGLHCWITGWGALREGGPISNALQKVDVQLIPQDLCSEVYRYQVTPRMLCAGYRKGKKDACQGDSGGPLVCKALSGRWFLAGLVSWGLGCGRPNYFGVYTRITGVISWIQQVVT
Briefly: Matriptase 2 inhibition, fluorescence based assay (Method I). The format is biochemical. Particulars: Table A; Ki of Matriptase-2; read-out: Mat-2 Ki. A digest of the protocol:
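In-house recombinant enzyme (3.5 nM), preincubated 30 min with compound, then Boc-Gln-Ala-Arg-AMC substrate (62 μM) in 50 mM Tris pH 7.5, 150 mM NaCl, 0.01% gelatin, 1% DMSO, 25 °C. Fluorescence (Ex 360/Em 480 nm) read 60 min after substrate; IC50 from variable-slope sigmoidal fit of % inhibition.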
For orientation: Ki means the equilibrium dissociation constant of an inhibitor or competing ligand from its target. On to `Cc1cccc(C)c1CS(=O)(=O)Nc1cc(Cn2c(C(=O)NCCN3CCOCC3)cc3ccc(CN)nc32)c2ccccc2c1` [Compound 196, 6-(aminomethyl)-1-({3-[(2,6-dimethylphenyl)-methanesulfonamido]-naphthalen-1-yl}meth-yl)-N-[2-(morpholin-4-yl)ethyl]-1H-pyrrolo-[2,3-b]pyridine-2-car-boxamide], for which the inhibition constant (Ki) was not above 100 nM.

With `NCc1ccc2cc(C(N)=O)n(Cc3cc(NS(=O)(=O)Cc4ccccc4)cc4ccccc34)c2n1` [Compound 57, 6-(aminomethyl)-1-{[3-(phenylmethanesulfon-amido)naphthalen-1-yl]-methyl}-1H-pyrrolo[2,3-b]pyridine-2-carboxamide], the inhibition constant Ki was not above 100 nM. Regarding `CN1CCC(CCOC(=O)c2cc3ccc(CN)nc3n2Cc2cc(NS(=O)(=O)Cc3ccsc3)cc3ccccc23)CC1` [Compound 174], the Ki is not above 100 nM. On the same count and under the same terms, for `CC(C)(CN)COC(=O)c1cc2ccc(CN)nc2n1Cc1cc(NS(=O)(=O)Cc2ccccc2)cc2ccccc12` [Compound 40, 3-amino-2,2-dimethyl-propyl 6-(aminomethyl)-1-{[3-(phenylmethane-sulfonamido)naphthalen-1-yl]methyl}-1H-pyrrolo-[2,3-b]pyridine-2-car-boxylate] the value was not above 100 nM; for `NCc1ccc2cc(C(=O)OCCn3cccc3)n(Cc3cc(NS(=O)(=O)Cc4ccccc4)cc4ccccc34)c2n1` [Compound 114, 2-(1H-pyrrol-1-yl)ethyl 6-(aminomethyl)-1-{[3-(phenylmethanesulfon-amido)naphthalen-1-yl]-methyl}-1H-pyrrolo[2,3-b]pyridine-2-carboxylate], 500 to 3000 nM; for `CC(C)n1ccnc1COC(=O)c1cc2ccc(CN)nc2n1Cc1cc(NS(=O)(=O)Cc2ccccc2)cc2ccccc12` [Compound 74, [1-(propan-2-yl)-1H-imidazol-2-yl]methyl 6-(aminomethyl)-1-{[3-(phenylmethanesulfon-amido)naphthalen-1-yl]-methyl}-1H-pyrrolo-[2,3-b]pyridine-2-car-boxylate], not above 100 nM. In the case of `C[C@@H](COC(=O)c1cc2ccc(CN)nc2n1Cc1cc(NS(=O)(=O)Cc2ccccc2)cc2ccccc12)N(C)C` [Compound 27, (2S)-2-(dimethylamino)-propyl 6-(aminomethyl)-1-{[3-(phenylmethane-sulfonamido)naphthalen-1-yl]methyl}-1H-pyr-rolo[2,3-b]pyridine-2-carboxylate], the inhibition constant (Ki) is not above 100 nM.

For the molecule `CN1CCC(COC(=O)c2cc3ccc(CN)nc3n2Cc2cc(NS(=O)(=O)C(F)(F)c3ccccc3)cc3ccccc23)CC1` [Compound 42, (1-methylpiperidin-4-yl)methyl 6-(aminometh-yl)-1-({3-[difluoro(phen-yl)methanesulfonamido]-naphthalen-1-yl}meth-yl)-1H-pyrrolo[2,3-b]-pyridine-2-carboxylate], the Ki is not above 100 nM.

For `C[C@H](COC(=O)c1cc2ccc(CN)nc2n1Cc1cc(NS(=O)(=O)Cc2ccccc2)cc2ccccc12)CN1CCOCC1` (racemic) [Compound 145, rac-(2R)-2-methyl-3-(morpholin-4-yl)propyl 6-(aminomethyl)-1-{[3-(phenylmethanesulfon-amido)naphthalen-1-yl]-methyl}-1H-pyrrolo[2,3-b]pyridine-2-carboxylate], the Ki is not above 100 nM. `CN1CCC(COC(=O)c2cc3ccc(CN)nc3n2Cc2cc(NS(=O)(=O)[C@H](F)c3ccccc3)cc3ccccc23)CC1` (racemic) [Compound 23, (1-methylpiperidin-4-yl)methyl 6-(amino-methyl)-1-({3-[fluoro-(phenyl)methanesulfon-amido]naphthalen-1-yl}-methyl)-1H-pyrrolo[2,3-b]pyridine-2-carboxylate]: the Ki was not above 100 nM. On the same count and under the same terms, for `COc1ccccc1CS(=O)(=O)Nc1cc(Cn2c(C(=O)O)cc3ccc(CN)nc32)c2ccccc2c1` [Compound 180, 6-(aminomethyl)-1-({3-[(2-methoxyphenyl)-methanesulfonamido]-naphthalen-1-yl}meth-yl)-1H-pyrrolo[2,3-b]-pyridine-2-carboxylic acid] the value was 100 to 500 nM; for `COCCOC(=O)c1cc2ccc(CN)nc2n1Cc1cc(NS(=O)(=O)Cc2ccccc2)cc2ccccc12` [Compound 95, 2-methoxyethyl 6-(aminomethyl)-1-{[3-(phenylmethanesulfon-amido)naphthalen-1-yl]-methyl}-1H-pyrrolo[2,3-b]pyridine-2-carboxylate], 100 to 500 nM; for `Cc1cccc(C)c1CS(=O)(=O)Nc1cc(Cn2c(C(=O)OCCC3CCN(C)CC3)cc3ccc(CN)nc32)c2ccccc2c1` [Compound 185, 2-(1-methylpiperidin-4-yl)ethyl 6-(aminometh-yl)-1-({3-[(2,6-dimethyl-phenyl)methanesulfon-amido]naphthalen-1-yl}-methyl)-1H-pyrrolo[2,3-b]pyridine-2-carboxylate], not above 100 nM.

Still in this assay, the particulars now being: Table A; Ki of Matriptase-2 given as class symbols; read-out: Mat-2 Ki.
As to `CN1CCC[C@H]1COC(=O)Nc1cc(Cn2c(C(=O)O)cc3ccc(CN)nc32)c2ccccc2c1` [Compound 334, 6-(aminomethyl)-1-({3-[({[(2S)-1-methylpyr-rolidin-2-yl]methoxy}-carbonyl)amino]naph-thalen-1-yl}methyl)-1H-pyrrolo[2,3-b]pyr-idine-2-carboxylic acid], the Ki was in the range of 100 to 500 nM. On the same count and under the same terms, then `CN(C)CC(=O)Nc1nnc(-c2cc3ccc(CN)nc3n2Cc2cc(NS(=O)(=O)Cc3ccccc3)cc3ccccc23)o1` [Compound 349], with not above 100 nM; and `NCc1ccc2cc(C(=O)O)n(Cc3cc(NS(=O)(=O)Cc4ccccn4)cc4ccccc34)c2n1` [Compound 222, 6-(aminomethyl)-1-({3-[(pyridin-2-yl)methane-sulfonamido]naphthalen-1-yl}methyl)-1H-pyr-rolo[2,3-b]pyridine-2-carboxylic acid], with 100 to 500 nM; and `NCc1ccc2cc(C(=O)O)n(Cc3cc(NS(=O)(=O)C4CCOCC4)cc4ccccc34)c2n1` [Compound 240, 6-(aminomethyl)-1-{[3-(oxane-4-sulfonamido)-naphthalen-1-yl]methyl}-1H-pyrrolo[2,3-b]pyr-idine-2-carboxylic acid], with 100 to 500 nM. As for `Cc1cccc(C)c1CS(=O)(=O)Nc1cc(Cn2c(C(=O)OCCN3CCOCC3)cc3ccc(CN)nc32)c2ccccc2c1` [Compound 199, 2-(morpholin-4-yl)ethyl 6-(aminomethyl)-1-({3-[(2,6-dimethylphenyl)-methanesulfonamido]-naphthalen-1-yl}meth-yl)-1H-pyrrolo[2,3-b]-pyridine-2-carboxylate], the inhibition constant Ki fell in the range of 100 to 500 nM.

For the molecule `CN1CCC(COC(=O)c2cc3ccc(CN)nc3n2Cc2cc(NS(=O)(=O)Cc3ccccc3O)cc3ccccc23)CC1` [Compound 203], the Ki was not above 100 nM. For the molecule `CN1CCC(COC(=O)c2cc3ccc(CN)nc3n2Cc2cc(NS(=O)(=O)Cc3ccoc3)cc3ccccc23)CC1` [Compound 207, (1-methylpiperidin-4-yl)-methyl 6-(aminomethyl)-1-({3-[(furan-3-yl)meth-anesulfonamido]naph-thalen-1-yl}methyl)-1H-pyrrolo[2,3-b]pyridine-2-carboxylate], the Ki was not above 100 nM. On the same count and under the same terms, for `CN1CCC(COC(=O)c2cc3ccc(CN)cc3n2Cc2cc(NS(=O)(=O)Cc3cccs3)cc3ccccc23)CC1` [Compound 379, (1-methylpiperidin-4-yl)-methyl 6-(aminomethyl)-1-({3-[(thiophen-2-yl)-methanesulfonamido]-naphthalen-1-yl}meth-yl)-1H-indole-2-carbox-ylate] the value was not above 100 nM; for `COCCN1CCC(CS(=O)(=O)Nc2cc(Cn3c(C(=O)OCC4CCN(C)CC4)cc4ccc(CN)nc43)c3ccccc3c2)CC1` [Compound 253], 500 to 3000 nM. On the same count and under the same terms, then `NCc1ccc2cc(-c3ncn[nH]3)n(Cc3cc(NS(=O)(=O)Cc4ccccc4)cc4ccccc34)c2n1` [Compound 352], with not above 100 nM. On to `NCc1ccc2cc(C(=O)O)n(Cc3cc(NS(=O)(=O)Cc4cscn4)cc4ccccc34)c2n1` [Compound 239, 6-(aminomethyl)-1-({3-[(1,3-thiazol-4-yl)meth-anesulfonamido]naph-thalen-1-yl}methyl)-1H-pyrrolo[2,3-b]pyridine-2-carboxylic acid], for which the inhibitory constant (Ki) is 100 to 500 nM.

Still in this assay, the particulars now being: Table B; Human Recombinant Matriptase 2, 3.5 nM enzyme, 62 μM substrate, 30 mins preincubation; read-out: Mean Ki.
`CN1CCC(COC(=O)c2cc3ccc(CN)nc3n2Cc2cccn3ccnc23)CC1` [Compound 2.39]: the Ki was more than 3000 nM. Same read-out and setting: then `CN1CCC(CCOC(=O)c2cc3ccc(CN)nc3n2Cc2cc(NS(=O)(=O)Cc3ccsc3)cc3c2CCCC3)CC1=O` (centres unmarked) [Compound 2.2], with 100 to 500 nM.

These data come from patent US20240400553A1, “AMINE BASED MATRIPTASE 2 INHIBITORS AND USES THEREOF” (Disc Medicine, Inc., priority 2023, published 2024).
